How the values were obtained:
B. pertussis = conditions: in vivo; cited from earlier work
[1] = test system: Factor Xa procoagulant activity on THP-1 cells; experiment: Generation of Factor Xa by monocytes (THP-1), clotting assay; format: cell-based; conditions: for Factor Xa / Clotting time: peptides 0.5 mM; for reduction of Factor Xa production: 0.5 mM, vs scrambled FHA II, 20 min; for Clotting time: mean ± SD of at least 3 experiments
Procedure: Factor Xa generation was determined by a modification of the method of Miletich et al. (1978), J. Biol. Chem. 253: 6908-6916. THP-1 cells (ATCC; […]) resuspended in RPMI 1640 (Bio Whittaker, Walkersville,Md.) were incubated with 100 μM ADP (Sigma), 2.5 mM CaC2, 1 or 5 μg/ml Factor X (Hematologic Technologies Inc.) and 0.5 mM peptides at room temperature. After 20 minutes, 100 μl of the reaction mixture was transferred to 37° C. and supplemented with 100 μl of bovine factor VII- and Factor X-deficient plasma (Sigma). Coagulation was initiated by adding 100 μl of 25 mM CaC2 and the clotting time was determined. Factor Xa procoagulant activity (ng/ml) was calculated by means of a standard curve constructed by serial concentrations of Factor Xa (Hematologic Technologies Inc.) from 50 to 250 ng/ml.

CSF leukocytosis = experiment: Rat meningitis model (LOS): CSF leukocytosis; format: in vivo, female Wistar rats; conditions: 4 hours after LOS
Procedure: The experiments were performed according to established protocols (Wispelway et al., 1988, J. Clin. Invest., 82: 1339-1346). Purified Haemophilus influenzae type b strain DL42 lipooligosaccharide (LOS) was prepared for inoculation by sonication for 30 minutes, dilution to the desired concentration (20 ng/50 μl) in normal saline or PBS, and sonication for an additional 15 to 30 minutes just prior to use.
(§1) Briefly, anesthetized female Wistar rats were placed under a micromanipulator and inoculated intracisternally with a 25 gauge needle. After removal of 50 μl of CSF (without visible blood contamination), rats were inoculated intracisternally with 50 μl (20 ng) of LOS using a 1 ml syringe with a 25 gauge needle. Ten to fifteen minutes after inoculation with LOS, the rats were treated by intravenous administration of the test substance: a solution of an FHA peptide in PBS, a solution of a control peptide in PBS, or an equal volume of PBS alone.
(§2) Three hours after LOS inoculation, 5 μCi of ^125 I-radiolabelled albumin in 50 μl normal saline was administered intravenously. One hour later, CSF was collected via intracisternal puncture and blood samples were collected via intracardiac puncture. CSF leukocytosis was determined by manually counting white blood cells using a hemacytometer, and blood-brain barrier permeability was determined as the percent of radioactivity in whole blood that was present in the CSF. Blood samples were obtained immediately prior to inoculation, immediately prior to treatment, and at 4 hours post-inoculation for determination of peripheral white blood cell concentrations.

[2] = test system: neutrophil adherence to human umbilical vein endothelial cells (HUVEC); experiment: Adherence of neutrophils to cultured (TNF alpha stimulated) endothelial cells; format: cell-based
Procedure: FIG. 17 is a bar graph representation of the inhibition of neutrophil adherence to activated endothelial cells by FHA, Factor X- and FHA- derived peptides. The concentration of inhibiting substances was: peptides 0.5 mM, native FHA 0.3 μM. Values represent the mean±standard deviation of 4 experiments with 5 wells/peptide.
FIG. 18 is a graphical representation of the FHA, FHA- or Factor X-peptide concentration effects on the inhibition of neutrophil adherence to activated endothelial cells. FHA peptide II monomer (Square) and trimer (Diamond), Factor X peptide II (Circle) at 10^-9 μM to 0.5 mM; native FHA at 10^-6 to 3×10^2 μM (triangle). Values represent the mean of 3 experiments with 5 wells/peptide (standard deviations <15%).
FIG. 25 is a graphical representation of the inhibition of neutrophil adherence to activated endothelial cells by FHA and FHA peptides. FIG. 25A: Peptide concentrations were 0.5 mM (FHA 0.2 μM). Values represent mean±standard deviation of four experiments with 5 wells/peptide; FIG. 25B represents the mean±standard deviation of triplicate experiments with 5 wells/peptide. Native FHA (.quadrature.); FHA peptide Ca (.largecircle.).
Human umbilical vein endothelial cells (HUVEC, first passage, Clonetics, San Diego, Calif.) were subcultured at confluence into Terasaki tissue culture wells. After 24 hours, confluent monolayers were used for adherence assays. Monolayers were stimulated with 10 ng/ml TNF alpha (Boehringer Mannheim, Indianapolis, Ind.) at 37° C. for four hours. 30 μl of human neutrophils (10^6 /ml) were labeled with fluorescein by the method of Lo et al. (1991), J. ExP. Med. 173 1493-1500, and preincubated for 15 minutes at 37° C. with 20 μl of peptides (0.5 mM in HAP) or HAP (phosphate buffered saline containing 0.5 mg/ml human serum albumin, 3 mM glucose, and 0.3 U/ml aprotinin) as a control buffer. For some experiments, endothelial cells were pretreated from 10 minutes with Factor X or antibodies against Factor X receptor (EPR-1; Altieri et al. (1990), J. Immunol. 145, 246-253) 12H1 and 9D4 (obtained from Dr. D. Altieri, Scripps Research Institute, LaJolla, Calif.) and then washed. Neutrophils were allowed to adhere to the monolayer for 15 mins. at 37° C. and unbound cells were removed by submersion of the plate in PBS buffer. The number of adherent neutrophils was counted in a 40× microscope field and expressed as a percentage of adherence in control wells with neutrophils treated with HAP buffer alone. The mAb IB4 against CD18 (50 μg/ml; Merck Inc., Rahway, N.J.) served as a positive control.
The ability of FHA peptides and anti-CD18 or anti-Factor X receptor antibodies to interact cooperatively to inhibit neutrophil adherence to endothelial cells was assessed by measuring neutrophil adherence to endothelial cells in the presence of antibody as well as antibody plus peptide. […] Anti-Factor X receptor mAb 12H1 (10 μl of ascites) or 9D4 (10 μg/ml) were added to the endothelial cell monolayers 10 min before the assay. The peptides were added at 5 μg/ml. The results are shown in Table 8 where the numerical values are in % of control binding.
(§3) The procedures for determining the neutrophil adherence to cultured endothelial cells and the transendothelial migration of neutrophils were identical with those of Example 9. Control values were the same as those shown in Example 9.

[3] = test system: transendothelial migration of human neutrophils through HUVEC monolayers; experiment: Transendothelial migration (TEM) of neutrophils; format: cell-based; conditions: peptides 0.01 mM, native FHA 1 μM; at least 3 experiments with 6 wells/peptide
Text: FIG. 26 is a graphical representation of the inhibition of transendothelial migration of neutrophils by FHA peptide Ca, native FHA and mAb IB4 in a concentration dependent fashion. FHA peptide Ca (.largecircle.); intact FHA (.quadrature.); and mAb IB4 (.tangle-solidup.). Values represent mean±standard deviation of at least 3 experiments with 6 wells/peptide.
Transendothelial migration of neutrophils was studied based on a method described by Muller et al. (1992), J. Exp. Med. 176: 819-828. Briefly, human neutrophils suspended in ice-cold Hanks balanced salt solution (HBSS) containing Ca^++ and Mg^++ (Sigma) were fluoresceinated by adding 3.3 μl/ml 5-(and 6-)carboxyfluorescein diacetate, succinimidyl ester (CFSE, Molecular Probes Inc., Oreg.). After incubation for 30 mins. on ice, neutrophils were washed twice in cold HBSS with Ca^++ and Mg^++ and resuspended in cold Medium 199 (M199, Sigma) to a final concentration of 10^6 /ml. Human umbilical vein endothelial cells were subcultured at confluence into 96-well tissue culture plates (Becton Dickinson Labware, Lincoln Park, N.J.) that were coated with hydrated collagen gel (Vitrogen; Collagen Corporation, Palo Alto, Calif.) and fibronectin. Endothelial cells were stimulated with 10 ng/ml TNF-alpha for 4 hours and washed three times with warm M199. Neutrophils (10^6 /ml) were preincubated with 0.01 mM of peptides or with 1 μM of native FHA in M199 for 5 mins. on ice before they were added in 100 μl aliquots to the endothelial cells. For positive control, neutrophils were pre-incubated with 25 μg/ml anti-CD18 mAb IB4. For negative control, neutrophils were treated with 25 μg/ml mAb W6/32 against HLA class I antigen (Dako, Carpinteria, Calif.). The cells were incubated for 1 hour at 37° C., 5% CO2. To terminate transmigration, the supernatant fluid was aspirated and the wells were filled with warm 1 mM EGTA (Sigma) in HBSS without Ca and Mg. The plates were covered with plate sealers (Dynatech, Alexandria, Va.) and centrifuged in an inverted position at 250 g for 3 mins. at room temperature. To remove residual non-transmigrated neutrophils from the endothelial cells, monolayers were washed twice with 200 μl of warm Hanks solution without Ca and Mg. Fluorescence was quantitated using a fluorescence counter (Millipore Cytofluorm™ 2300). The percentage of transmigrated neutrophils was determined by comparing the amount of fluorescence of test wells with that measured in collagen- and fibronectin-coated wells without endothelial cells. […] Percent inhibition of transendothelial migration of neutrophils was calculated by comparing the number of transmigrated cells in wells containing neutrophils treated with peptide to neutrophils treated with M199 alone and arbitrarily set at 100% transendothelial migration (TEM).
as §3

Factor X binding to CR3 = conditions: cited from earlier work
[4] = test system: blood-brain barrier permeability; experiment: Rat meningitis model (LOS): blood-brain barrier permeability (125I-albumin); format: in vivo, female Wistar rats; conditions: 100 nmol; percent of radioactivity in whole blood present in CSF
Procedure: as §1, §2

[5] = test system: recognition of C3bi by antibody 12.1F9; experiment: Inhibition of binding of 12.1F9 to E^C3bi by peptides; set-up: species or system human; conditions: peptides 50 μg/ml; for Adherence index: normalized to control value of 100, 6 experiments
Text: Values are normalized to a control value of 100; data are expressed as the mean±SD of 6 experiments with duplicate wells.

## OC[C@H]1O[C@@H](O[C@H]2[C@H](O)[C@@H](O)C(O)O[C@@H]2CO)[C@H](O)[C@@H](O)[C@H]1O (stereo partly drawn) [Lactose]
B. pertussis
  colonization of rabbit lung (in words): decrease colonization of rabbit lung

## CC(=O)N[C@@H](CC(C)C)C(=O)N[C@@H](CC(C)C)C(=O)N[C@H](C=O)CCCNC(=N)N [Leupeptin, reference compound]
[1]
  Factor Xa: < 10.0 ng/mL

## Ac-VEEDTKG-NH2 [scrambled ac/am FHA II, VEEDTKG]
CSF leukocytosis; 600 nmol i.v.
  Leukocytosis (CSF): 14,287 ± 10,199 cells/ml
CSF leukocytosis; 600 nmol i.v., listed as control peptide (scrambled ac/am FHA II)
  Leukocytosis (CSF): approximately 14,000 cells/ml

## FHA peptide A: synthetic peptide, residues 1055-1099, SEQ ID NO: 20 (IGALKAGAVEAASPRRARRALRQDFFTPGSVVVRAQGNVTVGRGD; UniProt P12255 1055-1099, looked up, fragment)
[2]; 45/50-mer peptides, FHA peptide C 1 mg/ml, 0.2 mM
  inhibition of neutrophil adherence: < 15%

## GLIQGRSVKVD [FHA Ib]
[1]
  reduction of Factor Xa production: 81%
  Factor Xa: 31.3 ng/mL
  Clotting time: 38.0 ± 7.6 s
[3]
  % Inhibition of TEM: 7 ± 10%

## GLYQAKRFKVG [Factor X I]
[1]
  effect on Factor Xa generation (in words): substantial reduction that did not reach statistical significance
  Factor Xa: 37.8 ng/mL
  Clotting time: 37.0 ± 4.0 s
[3]
  % Inhibition of TEM: 10 ± 6%
Factor X binding to CR3
  inhibition of binding of CR3 bearing cells to Factor X (in words): competitively inhibit the binding of CR3 bearing tissue culture cells to purified Factor X

## GRTRG (UniProt P12255 32-36, looked up, fragment) [FHA III]
[1]
  reduction of Factor Xa production: 74%
  Factor Xa: 43.4 ng/mL
  Clotting time: 36.2 ± 2.7 s
[2]; peptides 0.5 mM (Example 9)
  inhibition of neutrophil adherence (in words): less effective than the corresponding Factor X derived peptide
[3]
  % Inhibition of TEM: 5 ± 6%

## IDRSMKTRG [Factor X III]
[1]
  effect on Factor Xa generation (in words): substantial reduction that did not reach statistical significance
  Factor Xa: 107.5 ng/mL
  Clotting time: 26.5 ± 2.4 s
[3]
  % Inhibition of TEM: 5 ± 7%
Factor X binding to CR3
  inhibition of binding of CR3 bearing cells to Factor X (in words): competitively inhibit the binding of CR3 bearing tissue culture cells to purified Factor X

## IDVPQHGGAMRDLGIAQGKD [scrambled FHA Ca]
[4]
  BBB permeability: 6.74 ± 3.48%
CSF leukocytosis; 100 nmol i.v.
  Leukocytosis (CSF): 20,700 ± 7,400 cells/ml
CSF leukocytosis; 100 nmol i.v., listed as control peptide (scrambled FHA Ca)
  Leukocytosis (CSF): approximately 20,000 cells/ml

## TRYRGDQDATMS [C3/12, reference compound]
[5]
  Adherence index: 127 ± 27

## VTVGRGDPAQG [FHA RGD]
[5]
  Adherence index: 85 ± 9

## YTVAIAGYALA [C3-pep 1187-1197]
[5]
  block of binding of 12.1F9 to E^C3bi: up to 60%
  Adherence index: 30 ± 16

## YTVSADAIALA [FHA 1408-1418]
[5]
  block of binding of 12.1F9 to E^C3bi: up to 60%
  Adherence index: 21 ± 11

From patent US5792457A, “Antibody recognizing endothelial cell ligand for leukocyte CR3” (priority 1995, dated 1998)
